Assay results published in patent US5981559A, “Azole derivative with leukotriene (LTs) antagonizing activity and thromboxane (TX) A2 antagonizing activity” (Yamanouchi Pharmaceutical Co., Ltd., priority 1994, dated 1999).
pIC50: −log10 of the molar value.

Key:
[1] = test system: ileal contraction by LTD4; experiment: Inhibition of ileal contraction by LTD4 in guinea pig (Test (2)); set-up: species or system guinea pig (male Hartley); settings: guinea pig ileum, LTD4 10^-9 M; compound incubation 20 minutes
Procedure: (2) Test Method for the Inhibition of Ileal Contraction by LTD4 in Guinea Pig
A male Hartley guinea pig of 500 to 700 g in body weight was sacrificed by head blow. The ileum was set in a Magnus vessel containing 10 ml of Tyrode solution aerated with a 95% O2 +5% CO2 mixture gas at a tension of 1.0 g. The tension generated by the tissue was isometrically measured using a threton gage transducer. Ileal contraction reaction against LTD4 (10^-9 M) was measured in the absence of the compound and then in the presence of the test compound in varied concentrations. Incubation time of the compound was set to 20 minutes.

[2] = test system: platelet aggregation induced by U-46619 (stable analog of TXA2); experiment: Inhibition of platelet aggregation induced by U-46619 (Test (1)); format: cell-based, guinea pig (male Hartley); settings: Cavia porcellus; guinea pig PRP, platelet count 500,000/μl; compound added 2 minutes before U-46619
Procedure: (1) Test Method for the Inhibition of Platelet Aggregation Induced by U-46619
Using a plastic syringe containing 1 volume of 3.8% sodium citrate aqueous solution, 9 volumes of blood was collected from the abdominal aorta of a male Hartley guinea pig of about 800 g in body weight. Platelet rich plasma (PRP) was obtained by subjecting the blood to 10 minutes of centrifugation at 270×g, and the remaining blood was further centrifuged at 1,100×g for 10 minutes to give platelet poor plasma (PPP). The PRP was diluted with PPP to control the platelet count to 500,000/μl, and platelet aggregation by a stable analog of TXA2, U-46619 (a chemical name: 9,11-dideoxy-9α,11α-methanoepoxy-prostaglandin F2 α), was measured in accordance with the method of Bone and Cross (Journal of Physiology, vol.168, pp.178-195, 1963).
That is, changes in the light transmittance of PRP by U-46619 (10^-6 […]) was measured using NBS Hematracer. The compound was added 2 minutes before the addition of U-46619, and the IC50 value (50% inhibition concentration) was calculated from the inhibition ratio based on the maximum light transmittance by U-46619.

[3] = test system: LTD4-induced vascular permeability acceleration; experiment: Inhibition of LTD4-induced vascular permeability acceleration by oral administration (Test (4)); format: in vivo, guinea pig (male Hartley); settings: 10 mg/kg oral, 1 hour before LTD4 (5 ng/site intracutaneous); dimethyl sulfoxide solution (DMSO)
Procedure: (4) Test Method for the Inhibition of LTD4 -Induced Vascular Permeability Acceleration by Oral Administration of Compounds
A male Hartley guinea pig whose dorsal hair had been cut on the day before the test was subjected to intravenous administration of 1% Evans blue aqueous solution (1 ml/animal). Two minutes thereafter, LTD4 (5 ng/site) was administered inside the dorsal skin of the guinea pig, and the guinea pig was sacrificed by decapitation 30 minutes thereafter. The skin where intracutaneous injection of LTD4 was carried out was collected, and the pigment leaked into the skin was extracted. Amount of the leaked pigment was calculated by measuring its absorbance at 620 nm and used as the index of vascular permeability. The test compound was orally administered as a dimethyl sulfoxide solution 1 hour before the intracutaneous administration of LTD4. The results were calculated as the inhibition ratio at the time of the administration of 10 mg/kg of the compound.

[4] = test system: U-46619 induced airway resistance increase; experiment: Inhibition of U-46619 induced airway resistance increase in guinea pig by oral administration (Test (3)); format: in vivo, guinea pig (male Hartley); settings: 10 mg/kg oral, 1 hour before U-46619 (3 μg/kg i.v.)
Procedure: (3) Test Method for the Inhibition of U-46619 Induced Airway Resistance Increase in Guinea Pig by Oral Administration of Compounds
A male Hartley guinea pig (500 to 800 g) was anesthetized with urethane (1.2 g/kg, i.p.) and fixed on the back to insert a tracheal cannula. Spontaneous respiration was stopped with gallamine (1 mg/kg, i.v.) and artificial respiration was carried out at a rate of 60 strokes/min, volume 1 ml/100 g body weight/cycle. After total jugular intravenous administration of U-46619 (3 μg/kg), the increasing airway resistance was measured by a respiration function measuring apparatus (Model 6, Buxco Electronics Inc.). In this case, test compound was orally administered 1 hour before the administration of U-46619, as a dimethyl sulfoxide solution or as a methyl cellulose suspension.
The results were calculated as the inhibition ratio of airway resistance at the time of the administration of 10 mg/kg of the compound.

[5] = dimethyl sulfoxide solution (DMSO)

Structure (SMILES)	pIC50 [1]	pIC50 [2]	Test (4) Inhibition ratio [3] [%]	Test (3) Inhibition ratio [4, 5] [%]	Test (3) Inhibition ratio ([4]; methyl cellulose suspension (MC)) [%]
CC(C)(C)c1csc(CCc2cccc(C(=O)Nc3cc(CCCS(=O)(=O)c4ccc(Cl)cc4)ccc3OCC(=O)O)c2)n1 [Example 28, 2-[3-[2-(4-tert-Butyl-2-thiazolyl)ethyl]benzoylamino]-4-[3-(4-chlorophenylsulfonyl)propyl]phenoxyacetic acid]	9.01	7.13	–	–	–
O=C(O)CNC(=O)COc1ccc(CCCS(=O)(=O)c2ccc(Cl)cc2)cc1NC(=O)c1cccc(OCc2nc3ccccc3s2)c1 [Example 106, N-[[2-[3-(2-Benzothiazolylmethoxy)benzoylamino]-4-[3-(4-chlorophenylsulfonyl)propyl]phenoxy]acetyl]glycine]	9.04	5.92	–	–	–
O=C(O)COc1ccc(CCCS(=O)(=O)c2ccc(Cl)cc2)cc1NC(=O)c1cccc(OCc2ccc3ccccc3n2)c1 [Comparative compound]	–	–	35	27	21
CC(C)(C)c1csc(COc2cccc(C(=O)Nc3cc(CCCS(=O)(=O)c4ccc(Cl)cc4)ccc3OC(F)C(=O)O)c2)n1 (centres unmarked) [Example 79, 2-[2-[3-[(4-tert-butyl-2-thiazolyl)methoxy]benzoylamino]-4-[3-(4-chlorophenylsulfonyl)propyl]phenoxy]-2-fluoroacetic acid hydrate]	8.38	6.05	–	–	–
Cc1oc(=O)oc1COC(=O)COc1ccc(CCCS(=O)(=O)c2ccc(Cl)cc2)cc1NC(=O)c1cccc(OCc2nc(C(C)(C)C)cs2)c1 [Example 42, (5-methyl-2-oxo-1,3-dioxol-4-yl)methyl=2-[3-[(4-tert-butyl-2-thiazolyl)methoxy]benzoylamino]-4-[3-(4-chlorophenylsulfonyl)propyl]phenoxyacetic acid]	9.03	6.38	–	–	–
CS(=O)(=O)NC(=O)COc1ccc(CCCS(=O)(=O)c2ccc(Cl)cc2)cc1NC(=O)c1cccc(OCc2nc3ccccc3s2)c1 [Example 107, 2-[2-[3-(2-benzothiazolylmethoxy)benzoylamino]-4-[3-(4-chlorophenylsulfonyl)propyl]phenoxy]-N-(methanesulfonyl)acetamide 0.5 hydrate]	8.43	6.17	–	–	–

Continued by rising pIC50 [1], values first:

pIC50 [1]	pIC50 [2]	Structure (SMILES)	Test (4) Inhibition ratio [3] [%]	Test (3) Inhibition ratio [4, 5] [%]	Test (3) Inhibition ratio ([4]; methyl cellulose suspension (MC)) [%]
9.07	7.20	CCOC(=O)COc1ccc(CCCS(=O)(=O)c2ccc(Cl)cc2)cc1NC(=O)c1cccc(OCc2nc(C3CC3)cs2)c1 [Example 15, Ethyl 4-[3-(4-chlorophenylsulfonyl)propyl]-2-[3-[(4-cyclopropyl-2-thiazolyl]methoxy]benzoylamino]phenoxyacetate]	–	–	–
9.09	6.35	CCOC(=O)COc1ccc(CCCS(=O)(=O)c2ccc(Cl)cc2)cc1NC(=O)c1cccc(OCc2nc(C(C)(C)C)cs2)c1 [Example 6, Ethyl 2-[3-[(4-tert-butyl-2-thiazolyl)methoxy]benzoylamino]-4-[3-(4-chlorophenylsulfonyl)propyl]phenoxyacetate]	–	–	–
9.17	6.68	CC(C)(C)c1csc(CSc2cccc(C(=O)Nc3cc(CCCS(=O)(=O)c4ccc(Cl)cc4)ccc3OCC(=O)O)c2)n1 [Example 27, 2-[3-[(4-tert-Butyl-2-thiazolyl)methylthio]benzoylamino]-4-[3-(4-chlorophenylsulfonyl)propyl]phenoxyacetic acid]	–	–	–
9.21	6.96	O=C(O)COc1ccc(CCCS(=O)(=O)c2ccc(Cl)cc2)cc1NC(=O)c1cccc(OCc2nc(C3CCCCC3)cs2)c1 [Example 29, 4-[3-(4-Chlorophenylsulfonyl)propyl]-2-[3-[(4-cyclohexyl-2-thiazolyl)methoxy]benzoylamino]phenoxyacetic acid]	–	–	–
9.24	6.66	CC(C)(C)c1csc(COc2cccc(C(=O)Nc3cc(CCCS(=O)(=O)c4ccc(Cl)cc4)ccc3OCc3nnn[nH]3)c2)n1 [Example 39, 3-[(4-tert-Butyl-2-thiazolyl)methoxy]-5'-[3-(4-chlorophenylsulfonyl)propyl]-2'-(1H-tetrazol-5-ylmethoxy)benzanilide]	–	–	–
9.27	7.10	O=C(O)COc1ccc(CCCS(=O)(=O)c2ccc(Cl)cc2)cc1NC(=O)c1cccc(OCc2nc(C3CC3)cs2)c1 [Example 26, 4-[3-(4-Chlorophenylsulfonyl)propyl]-2-[3-[(4-cyclopropyl-2-thiazolyl)methoxy]benzoylamino]phenoxyacetic acid]	–	–	–
9.35	7.26	CC(C)(C)c1csc(COc2cccc(C(=O)Nc3cc(CCCS(=O)(=O)c4ccc(Cl)cc4)ccc3OCC(=O)O)c2)n1 [Example 13, 2-[3-[(4-tert-Butyl-2-thiazolyl)methoxy]benzoylamino]-4-[3-(4-chlorophenylsulfonyl)propyl]phenoxyacetic acid]	–	–	–
9.55	6.89	O=C(O)COc1ccc(CCCS(=O)(=O)c2ccc(Cl)cc2)cc1NC(=O)c1cccc(OCc2nc(C3CCC3)cs2)c1 [Example 31, 4-[3-(4-Chlorophenylsulfonyl)propyl]-2-[3-[(4-cyclobutyl-2-thiazolyl)methoxy]benzoylamino]phenoxyacetic acid]	40	72	–
9.59	6.42	O=C(Nc1cc(CCCS(=O)(=O)c2ccc(Cl)cc2)ccc1OCc1nnn[nH]1)c1cccc(OCc2nc3ccccc3s2)c1 [Example 111, 3-(2-benzothiazolylmethoxy)-5'-[3-(4-chlorophenylsulfonyl)propyl]-2'-(1H-tetrazol-5-ylmethoxy)benzanilide]	–	–	–
9.62	6.27	O=C(Nc1cc(CCCS(=O)(=O)c2ccc(Cl)cc2)ccc1OCc1nnn[nH]1)c1cccc(OCc2nc(C3CCC3)cs2)c1 [Example 74, 5'-[3-(4-Chlorophenylsulfonyl)propyl]-3-[(4-cyclobutyl-2-thiazolyl)methoxy]-2'-(1H-tetrazol-5-ylmethoxy)benzanilide]	–	–	–
